Measurements from PubChem BioAssay (NCI).
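Tested at 5 concentrations; 48 h exposure; 96-well plates; endpoints linearly interpolated, else capped at highest concentration. The concentration for 50% growth inhibition is given as GI50. TGI marks complete inhibition of growth.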

How the values were obtained:
Test in all cases: inhibition of tumour cell growth, NCI panel, 48 h
SF-268 CNS = system: SF-268 CNS
BT-549 breast = system: BT-549 breast
SW-620 colon = system: SW-620 colon
OVCAR-5 ovarian = system: OVCAR-5 ovarian
PC-3 prostate = system: PC-3 prostate
OVCAR-3 ovarian = system: OVCAR-3 ovarian
UO-31 renal = system: UO-31 renal
SR leukemia = system: SR leukemia
SK-OV-3 ovarian = system: SK-OV-3 ovarian
M14 melanoma = system: M14 melanoma

| SMILES | GI50 (SF-268 CNS) [µM] | TGI (SF-268 CNS) [µM] | GI50 (BT-549 breast) [µM] | TGI (BT-549 breast) [µM] | GI50 (SW-620 colon) [µM] | TGI (SW-620 colon) [µM] | GI50 (OVCAR-5 ovarian) [µM] | TGI (OVCAR-5 ovarian) [µM] | GI50 (PC-3 prostate) [µM] | TGI (PC-3 prostate) [µM] | GI50 (OVCAR-3 ovarian) [µM] | TGI (OVCAR-3 ovarian) [µM] | GI50 (UO-31 renal) [µM] | TGI (UO-31 renal) [µM] | GI50 (SR leukemia) [µM] | TGI (SR leukemia) [µM] | GI50 (SK-OV-3 ovarian) [µM] | TGI (SK-OV-3 ovarian) [µM] | TGI (M14 melanoma) [µM] | GI50 (M14 melanoma) [µM] |
| --- | --- | --- | --- | --- | --- | --- | --- | --- | --- | --- | --- | --- | --- | --- | --- | --- | --- | --- | --- | --- |
| O=C(Nc1ncc(Cc2ccccc2)s1)c1ccc2c(c1)OCCO2 | 0.459 | > 100 | 0.267 | > 100 | 0.0435 | > 100 | 0.096 | > 100 | 0.0424 | > 100 | 0.0336 | 1.01 | 0.0756 | > 100 | 0.0487 | > 100 | 0.0681 | 26.9 |  |  |
| O=C1OC(c2ccccc2)C2CC3CC4(CCC3CN12)OCCO4 (stereo not drawn) |  | > 100 |  |  |  | > 100 |  | > 100 |  |  |  | > 100 |  | > 100 |  | > 100 |  | > 100 | > 100 |  |
| O=c1oc2c3ccc4ccccc4c3n(CCN3CCOCC3)c2c2ccccc12 |  | > 100 |  |  |  | > 100 |  |  |  |  |  | > 100 |  | > 100 |  | 58.3 |  | > 100 | > 100 |  |
| COc1ccc(-c2cn(-c3ccc(Cl)cc3)c(=S)[nH]2)cc1OC | 24.6 | > 100 | 7.3 | > 100 | > 100 | > 100 | 4.58 | > 100 | 65.5 | > 100 | 47.2 | > 100 | 39.6 | > 100 | 2.91 | > 100 | 48.9 | > 100 |  |  |
| COc1ccc(CN2C(=O)C(Cc3cc(OC)c(OC)c(C)c3OC)N(C(=O)OC(C)C)C(=O)/C2=C/c2cc(OC)c(OC)c(C)c2OC)cc1 (stereo not drawn) |  | > 100 |  |  |  | > 100 |  | > 100 |  |  |  | > 100 |  | > 100 |  | 89.8 |  | > 100 | > 100 |  |
| O=C(/C=C/C=C/c1ccccc1)c1ccc(Nc2nc(Nc3ccccc3)nc(Nc3ccccc3)n2)cc1 | 97 | > 100 | > 100 | > 100 | > 100 | > 100 | > 100 | > 100 |  |  | 47.8 | > 100 | 13.3 | > 100 | 9.45 | 92.9 | > 100 | > 100 | > 100 | 77.5 |
| CN(C)c1ccccc1CC(c1c[nH]c2ccccc12)c1c[nH]c2ccccc12 |  | 28.8 |  |  |  | 19.2 |  | 30.5 |  |  |  | 25.6 |  | 23.1 |  | 21.6 |  | 33.7 | 24 |  |
| CN(CCCCCl)P(=O)(OCc1ccc([N+](=O)[O-])o1)C(F)(F)c1ccc(CC(=O)N[C@@H](CC(=O)O)C(=O)N[C@@H](Cc2ccc(C(F)(F)P(=O)(OCc3ccc([N+](=O)[O-])o3)N(C)CCCCCl)cc2)C(N)=O)cc1 (stereo partly drawn) | 42.9 | > 100 | 18.8 | 44.4 | 81.9 | > 100 | > 100 | > 100 | 80.5 | > 100 | 37.6 | > 100 | > 100 | > 100 | 22.9 | 49.9 | > 100 | > 100 |  |  |
| COc1ccc(NC(=O)CC/C(CC(=O)c2ccccc2Cl)=N\Nc2nnc(C)n2N)cc1 |  | > 100 |  |  |  | > 100 |  | > 100 |  |  |  |  |  | > 100 |  | > 100 |  | > 100 |  |  |
| COCC1C(=O)c2cc3c(cc2C12C=CC1(C=C2)OCCO1)OCO3 (stereo not drawn) |  | 16 |  |  |  | 8.76 |  |  |  |  |  | 26.5 |  |  |  | 6.8 |  | 29.7 | 12.6 |  |
| Cc1cc(C)nc(NS(=O)(=O)c2ccc(NC(=O)c3cccc4c(Nc5ccc(S(=O)(=O)Nc6nc(C)cc(C)n6)cc5)c5ccccc5nc34)cc2)n1 |  | 93 |  |  |  | 65.3 |  |  |  |  |  | 39.8 |  | 37.3 |  |  |  | 57.2 | 54.9 |  |
| Nc1nc(=O)n(C2CC(O)C(O)C(CO)O2)cc1F (stereo not drawn) |  | > 100 |  |  |  | > 100 |  | > 100 |  |  |  | > 100 |  | > 100 |  |  |  |  | > 100 |  |
| COc1ccc(C(=O)/C(=N/Nc2ccccc2)c2ccc(OC)cc2)cc1 |  |  |  |  |  | > 100 |  | > 100 |  |  |  |  |  | > 100 |  |  |  | > 100 |  |  |
| C[N+](C)(C)CCC(=O)N1C/C(=C\c2ccccc2)C(=O)/C(=C/c2ccccc2)C1 |  | 13 |  | 4.95 |  | 2.68 |  | 30.6 |  | 6.97 |  | 9.31 |  | 33 |  |  |  | 46.8 | 7.54 |  |
| N#Cc1ccc(/C=N\N2C(=O)c3ccccc3C2=O)cc1 |  | > 100 |  |  |  | > 100 |  | > 100 |  |  |  | > 100 |  | > 100 |  | > 100 |  |  | > 100 |  |
| O=C(CCCCCCC(=O)N/N=C/c1ccc(N(c2ccccc2)c2ccccc2)cc1)NO | 3.27 | 13.6 | 2.38 | 11.5 | 2.49 | 14.3 | 0.417 | 2.94 | 2.39 | 10.7 | 1.45 | 4.58 | 1.44 | 4.4 | 2.38 | 14.1 | 1.6 | 5.29 |  |  |
| [N-]=[N+]=Nc1ccccc1-[n+]1noc([O-])c1Br |  | > 100 |  |  |  | > 100 |  |  |  |  |  | > 100 |  | > 100 |  | > 100 |  | > 100 | > 100 |  |
| CCOc1cc(C=O)c2c(ccc3ccc(OC)c(OC)c32)c1OC |  | > 100 |  | > 100 |  |  |  | > 100 |  | > 100 |  | > 100 |  | > 100 |  |  |  | > 100 | > 100 |  |
| COC1OCC(OS(=O)(=O)c2ccc(C)cc2)C(OC(=O)c2ccccc2)C1OC(=O)c1ccccc1 (stereo not drawn) | 9.75 | > 100 | > 100 | > 100 | 3.08 | > 100 | > 100 | > 100 | 9.01 | > 100 | 2.95 | 61.7 | > 100 | > 100 | 3.07 | > 100 | 21.7 | > 100 |  |  |
| COc1ccc2nc3cc(Cl)ccc3c(NCCC(=O)OCC(O)C(O)C(O[C@H](C)C(=O)NC(C)C(=O)NC(CCC(N)=O)C(=O)OCc3ccccc3)C(C=O)NC(C)=O)c2c1 (stereo partly drawn) |  | 32.8 |  |  |  | 30.9 |  | 47 |  |  |  | 34.7 |  | 34.7 |  | 23.6 |  | 33 | 35.5 |  |
| Cn1c(=O)nc2n(-c3ccc(F)cc3)c3ccccc3nc-2c1=O |  | > 100 |  |  |  | 34 |  | 42.2 |  |  |  | 11 |  | > 100 |  |  |  | > 100 | 67.3 |  |
